Source: US8232297B2, “Sulphonylpyrroles as inhibitors of HDACs novel sulphonylpyrroles” (4SC AG, priority 2005, dated 2012)

Experiments:
[1] = tested on: HeLa cervical carcinoma cells; assay: Cellular cytotoxicity assay (Alamar Blue), HeLa; type: cell-based; conditions: Homo sapiens, 72 h, printed only as range over the group of listed compounds
Procedure: The anti-proliferative activity of the histone deacetylase inhibitory compounds as described herein, was evaluated using the following cell lines: HeLa and HeLa-KB (cervical carcinoma), H460 (non small cell lung cancer), A549 (non-small cell lung cancer), MCF7 (breast carcinoma), MCF10A (normal, non tumorigenic breast epithelial), MDA-MB468 (breast carcinoma), MDA-MB435 (breast carcinoma), MDA-MB231 (breast carcinoma), SKBR-3 (breast carcinoma), SKOV-3 (ovarial carcinoma), A-2780 (ovarial carcinoma), RKO (colon carcinoma), HCT-15 (colon carcinoma), HCT-116 (colon carcinoma), PC3 (prostate carcinoma), BPH1 (benign prostate hyperplasia), AsPC1 (pancreatic carcinoma), Cal27 (tongue carcinoma), A-431 (vulva carcinoma), Hec1A (endometrial carcinoma), Saos-2 (osteosarcoma), U87MG (glioblastoma), WM266-4 (melanoma), K562 (chronic myeloid carcinoma), EOL1 (acute hypereosinophilic myeloid leukemia), CCRF-CEM and CCRF-CEM VCR1000 (acute lymphoblastic leukemia sensitive and resistant towards Vincristine). For quantification of cellular proliferation/living cells the Alamar Blue (Resazurin) cell viability assay was applied (O'Brien et al. Eur J Biochem 267, 5421-5426, 2000). […] After 4 hours incubation at 37° C. the fluorescence was measured at an extinction of 544 nm and an emission of 590 nm. […] Viabilities were expressed as % values. […]

[2] = tested on: RKO proliferating colon carcinoma cells; assay: Cell-cycle dependent cytotoxicity, RKO exop21 system, proliferating; type: cell-based; conditions: 72 h, given only as range over the listed compounds
Procedure: (§1) For determination of cell-cycle dependent cytotoxicity, the RKO exop21 cell system was applied (Schmidt et al. Oncogene 19: 2423-2429, 2000). Briefly, RKO cells with/without p21^waf1 expression (2×10^4 cells/well induced, 6×10^3 cells/well not induced) were treated with the examples for 72 h and metabolic activity quantified as described before. The expression of p21^waf1 was induced by treatment with Pronasterone A, causing a complete proliferation arrest of RKO cells in the G1 and G2 phases of the cell division cycle.

A549 cell line = assay: Combination experiment with Trail; type: cell-based; conditions: example at about its IC50 with Trail, 4 h pretreatment, 72 h total
Procedure: A549 non-small cell lung cancer, MDA-MB468 breast cancer and […] colorectal cancer cell lines were pretreated with the examples for 4 h before adding the chemotherapeutic agents or Trail and further incubation for 72 h total. The IC50 values of these combinations were determined from concentration-effect curves and compared to IC50 values of cell treated with the anti-cancer agent only.

[3] = tested on: RKO arrested (p21waf1 expressed) colon carcinoma cells; assay: Cell-cycle dependent cytotoxicity, RKO exop21 system, arrested; type: cell-based; conditions: 72 h, p21waf1 induced, given only as range over the listed compounds
Procedure: as §1

Work on `Cc1ccc(S(=O)(=O)n2ccc(C=CC(=O)NO)c2)cc1` [Compound 1, (E)-N-Hydroxy-3-[1-(toluene-4-sulfonyl)-1-H-pyrrol-3-yl]-acrylamide] yielded an IC50 [1] of 0.8 to 21.6 µM.
Compound `O=C(/C=C/c1ccn(S(=O)(=O)c2ccc(-c3cn[nH]c3)cc2)c1)NO` [Compound 19, (E)-N-Hydroxy-3-{1-[4-(1H-pyrazol-4-yl)-benzenesulfonyl]-1H-pyrrol-3-yl}-acrylamide] has a melting point of 203.8 to 211.9 °C.
For `O=C(/C=C/c1ccn(S(=O)(=O)c2ccc(-c3ccccn3)s2)c1)NO` [Compound 24, (E)-N-Hydroxy-3-[1-(5-pyridin-2-yl-thiophene-2-sulfonyl)-1H-pyrrol-3-yl]-acrylamide], the IC50 [2] was 0.15 to 5.1 µM, the “Effect of combination with Trail” value (A549 cell line) was “synergism is highly likely” and the IC50 [3] was 0.45 to 15 µM.
Work on `NCc1ccc(S(=O)(=O)n2ccc(/C=C/C(=O)NO)c2)cc1` [Compound 17, (E)-3-[1-(4-Aminomethyl-benzenesulfonyl)-1H-pyrrol-3-yl]-N-hydroxy-acrylamide] yielded a melting point of 227 to 228.6 °C.
With `Nc1ccccc1NC(=O)/C=C/c1ccn(S(=O)(=O)c2ccc(-c3cccnc3)cc2)c1` [Compound 21, (E)-N-(2-Amino-phenyl)-3-[1-(4-pyridin-3-yl-benzenesulfonyl)-1H-pyrrol-3-yl]-acrylamide] the melting point was 199.7 to 202.3 °C.
Compound `O=C(/C=C/c1ccn(S(=O)(=O)c2ccc(CN3CCOCC3)cc2)c1)NO` [Compound 27, (E)-N-Hydroxy-3-[1-(4-morpholin-4-ylmethyl-benzenesulfonyl)-1H-pyrrol-3-yl]-acrylamide] has a melting point of 168 to 170 °C.
Compound `O=C(/C=C/c1ccn(S(=O)(=O)c2cccc(-c3ccccc3)c2)c1)NO` [Compound 23, (E)-3-[1-(Biphenyl-3-sulfonyl)-1H-pyrrol-3-yl]-N-hydroxy-acrylamide] has a melting point of 114 to 159.4 °C.
Work on `Nc1ccccc1NC(=O)/C=C/c1ccn(S(=O)(=O)c2ccc(-c3cn[nH]c3)cc2)c1` [Compound 22, (E)-N-(2-Amino-phenyl)-3-{1-[4-(1H-pyrazol-4-yl)-benzenesulfonyl]-1H-pyrrol-3-yl}-acrylamide] yielded a melting point of 232.3 to 240.9 °C.
For `Nc1ccccc1NC(=O)/C=C/c1ccn(S(=O)(=O)c2ccc(-c3ccncc3)cc2)c1` [Compound 20, (E)-N-(2-Amino-phenyl)-3-[1-(4-pyridin-4-yl-benzenesulfonyl)-1H-pyrrol-3-yl]-acrylamide], the melting point was 244.2 to 246.5 °C.
For `O=C(/C=C/c1ccn(S(=O)(=O)c2ccc(-n3cccn3)cc2)c1)NO` [Compound 25, (E)-N-Hydroxy-3-[1-(4-pyrazol-1-yl-benzenesulfonyl)-1H-pyrrol-3-yl]-acrylamide], the melting point was 160.7 to 166.6 °C.
In the case of `CN(CCc1cc2ccccc2[nH]1)Cc1ccc(S(=O)(=O)n2ccc(/C=C/C(=O)NO)c2)cc1` [Compound 9, (E)-N-Hydroxy-3-(1-[4-(([2-(1H-indol-2-yl)-ethyl]-methyl-amino)-methyl)-benzenesulfonyl]-1H-pyrrol-3-yl)-acrylamide], the IC50 [2] is reported as 0.15 to 5.1 µM, the “Effect of combination with Trail” value (A549 cell line) is reported as “synergism is highly likely” and the IC50 [3] is reported as 0.45 to 15 µM.
With `O=C(/C=C/c1ccn(S(=O)(=O)c2ccc(-c3ccccc3)cc2)c1)NO` [Compound 3, (E)-3-[1-(Biphenyl-4-sulfonyl)-1H-pyrrol-3-yl]-N-hydroxy-acrylamide] the IC50 [2] was 0.15 to 5.1 µM, the “Effect of combination with Trail” value (A549 cell line) was “synergism is highly likely” and the IC50 [3] was 0.45 to 15 µM.
`O=C(/C=C/c1ccn(S(=O)(=O)c2ccc(-c3ccncc3)cc2)c1)NO` [Compound 18, (E)-N-Hydroxy-3-[1-(4-pyridin-4-yl-benzenesulfonyl)-1H-pyrrol-3-yl]-acrylamide] showed a melting point of 219.3 to 221.4 °C.
For `Nc1ccccc1NC(=O)/C=C/c1ccn(S(=O)(=O)c2ccc(-c3ccccn3)s2)c1` [Compound 26, (E)-N-(2-Amino-phenyl)-3-[1-(5-pyridin-2-yl-thiophene-2-sulfonyl)-1H-pyrrol-3-yl]-acrylamide], the melting point was 171.3 to 174.7 °C.
With `CN(C)Cc1ccc(S(=O)(=O)n2ccc(/C=C/C(=O)NO)c2)cc1` [Compound 10, (E)-3-[1-(4-Dimethylaminomethyl-benzenesulfonyl)-1H-pyrrol-3-yl]-N-hydroxy-acrylamide] the IC50 [2] was 0.15 to 5.1 µM, the “Effect of combination with Trail” value (A549 cell line) was “synergism is highly likely” and the IC50 [3] was 0.45 to 15 µM.
